Source: the Deep4Chem optical property database
Several values for one entry are separate records, joined by “and”; a condition that tells them apart may be missing. Equal values may be shown once. Blank lines part the entries; values can stand above or below the molecule they belong to.

Assay: solvent given as SMILES

Compound: CCCCCOc1cc2oc(=O)c3c4ccc(O)cc4c4ccc5cccc6c(c1)c2c3c4c56
absorption maximum (in C1CCOC1): 443 nm

Compound: C(=C\c1c2ccccc2cc2ccccc12)/c1c2ccccc2cc2ccccc12
absorption maximum (in C1CCOC1): 400 nm

Compound: CCCCCCCCC1(CCCCCCCC)c2cc(C#Cc3ccc(N(c4ccccc4)c4ccccc4)cc3)ccc2-c2ccc(C=O)cc21
absorption maximum (in C1CCOC1): 378 nm
absorption maximum (in C1COCCO1): 381 nm
absorption maximum (in CC#N): 378 nm
absorption maximum (in CC(C)=O): 373 nm
absorption maximum (in CCOC(C)=O): 376 nm
absorption maximum (in CN(C)C=O): 380 nm
absorption maximum (in CS(C)=O): 381 nm
absorption maximum (in Cc1ccccc1): 388 nm
absorption maximum (in ClC(Cl)Cl): 386 nm
absorption maximum (in ClCCl): 384 nm

Compound: c1ccc(-c2nc(-c3ccccc3)c(N(c3ccccc3)c3ccccc3)s2)cc1
absorption maximum (in ClC(Cl)Cl): 367 nm

Compound: COC(=O)C[C@H](NC(=O)[C@H](Cc1c[nH]c2ccccc12)NC(=O)OC(C)(C)C)C(=O)OC
absorption maximum (in CC#N): 280 nm
absorption maximum (in CCOC(C)=O): 280 nm
absorption maximum (in CO): 280 nm

Compound: CCOc1cccc(-c2nc3c(c4c2-c2ccccc2CC4)-c2ccccc2CC3)c1O
absorption maximum (in ClCCl): 335 nm

Compound: CCCCCCC1(CCCCCC)c2cc(-c3nc(-c4ccc5c(c4)C(CCCCCC)(CCCCCC)c4cc(N6c7ccccc7Oc7ccccc76)ccc4-5)nc(-c4ccc5c(c4)C(CCCCCC)(CCCCCC)c4cc(N6c7ccccc7Oc7ccccc76)ccc4-5)n3)ccc2-c2ccc(N3c4ccccc4Oc4ccccc43)cc21
absorption maximum (in C1CCOC1): 391 nm

Compound: c1ccc2nc3cccc(-c4ccc(-n5c6ccccc6c6ccccc65)cc4)c3cc2c1
absorption maximum (in C1CCOC1): 359 nm
absorption maximum (in CC#N): 358 nm
absorption maximum (in CC(C)=O): 358 nm
absorption maximum (in CC(C)OC(C)C): 359 nm
absorption maximum (in CCCCCC): 359 nm
absorption maximum (in CCCCOCCCC): 359 nm
absorption maximum (in CCOC(C)=O): 359 nm
absorption maximum (in CCOCC): 358 nm

Compound: Cc1ccccc1/C(C#N)=C/c1ccc(N(C)C)cc1
absorption maximum (in C1CCOC1): 376 nm
absorption maximum (in C1COCCO1): 376 nm
absorption maximum (in CC#N): 377 nm
absorption maximum (in CCCCCC): 364 nm
absorption maximum (in CCCCCCC): 376 nm
absorption maximum (in CCCCCO): 376 nm
absorption maximum (in CCCCO): 376 nm
absorption maximum (in CCCO): 374 nm
absorption maximum (in CCO): 376 nm
absorption maximum (in CCOC(C)=O): 373 nm
absorption maximum (in CN(C)C=O): 382 nm
absorption maximum (in CO): 374 nm
absorption maximum (in CS(C)=O): 385 nm
absorption maximum (in Cc1ccccc1): 366 nm
absorption maximum (in ClC(Cl)Cl): 378 nm

Compound: CC(C)c1cccc(C(C)C)c1N1C(=O)c2cc(Cl)c3c4c(Cl)cc5c6c(cc(Cl)c(c7c(Cl)cc(c2c37)C1=O)c64)C(=O)N(c1c(C(C)C)cccc1C(C)C)C5=O
absorption maximum (in Cc1ccccc1): 523 nm

Compound: CC(C)(C)c1cc2c(c(C(C)(C)C)c1)O[B-]1(c3ccc([B-]45OC(c6ccccc6)=N[N+]4=Cc4cc(C(C)(C)C)cc(C(C)(C)C)c4O5)cc3)OC(c3ccccc3)=N[N+]1=C2 (centres undefined)
absorption maximum (in C1CCOC1): 455 nm

Compound: CCCCCc1ccc(-c2ccc(C#Cc3cc(C#Cc4ccc(-c5ccc(CCCCC)cc5)cc4)c4ccc5c(C(=O)c6ccccc6)cc(C#Cc6ccc(-c7ccc(CCCCC)cc7)cc6)c6ccc3c4c65)cc2)cc1
absorption maximum (in ClCCl): 466 nm

Compound: COc1ccc(-c2ccc3c(c2)c2cc(-c4ccc(OC)cc4)ccc2n3-c2ccc(C(=O)c3ccc4sc5ccccc5c4c3)nc2)cc1
absorption maximum (in Cc1ccccc1): 390 nm

Compound: COc1ccc(C2=[N+]3C(=Nc4c5c6ccccc6c6ccc(C(C)(C)C)cc6c5c(-c5ccc(OC)cc5)n4[B-]3(F)F)c3c2c2cc(C(C)(C)C)ccc2c2ccccc32)cc1
absorption maximum (in Cc1ccccc1): 716 nm

Compound: CCN(CC)c1ccc2c(C)cc(=O)oc2c1
absorption maximum (in C1CCCCC1): 350 nm
absorption maximum (in CC#N): 367 nm
absorption maximum (in CCCCCCCCO): 373 nm
absorption maximum (in CCCCCCO): 373 nm
absorption maximum (in CCCCO): 374 nm
absorption maximum (in CCCO): 376 nm
absorption maximum (in CCO): 376 nm and 435 nm and 373 nm
absorption maximum (in CCOC(C)=O): 361 nm
absorption maximum (in OCC(O)CO): 384 nm

Compound: O=C(O)c1cc(O)c(O)c(O)c1
absorption maximum (in O): 258 nm

Compound: COc1ccc2c3ccc(OC)cc3n(-c3ccc(-c4nnc(C)o4)cc3)c2c1
absorption maximum (in Cc1ccccc1): 319 nm

Compound: COc1ccc(C2=C(Br)C(c3ccccc3)=[N+]3C2=Nc2c(-c4ccc(OC)cc4)c(Br)c(-c4ccccc4)n2[B-]3(F)F)cc1
absorption maximum (in Cc1ccccc1): 654 nm

Compound: c1ccc(-c2ncc3ccccn23)cc1
absorption maximum (in ClC(Cl)Cl): 317 nm

Compound: c1cc2c3c(cccc3c1)NC(c1ccc3ccc4cccc5ccc1c3c45)N2
absorption maximum (in CC#N): 341 nm
absorption maximum (in CO): 340 nm
absorption maximum (in CS(C)=O): 344 nm
absorption maximum (in Cc1ccccc1): 344 nm

Compound: CN(C)c1cc(F)c(C(=O)c2cc(F)c(N(C)C)cc2F)cc1F
absorption maximum (in CCO): 358 nm

Compound: Fc1cc(-c2ccc(-c3nc4cc(Br)ccc4[nH]3)cc2)ccc1-c1ccc(-c2nc3cc(Br)ccc3[nH]2)cc1
absorption maximum (in CN(C)C=O): 342 nm

Compound: CCCCCCOc1cc(/C=C/c2cc(OCCCCCC)c(/C=C/c3cc(OCCCCCC)c(/C=C4\C(=O)c5ccccc5C4=C(C#N)C#N)cc3OCCCCCC)cc2OCCCCCC)c(OCCCCCC)cc1/C=C1\C(=O)c2ccccc2C1=C(C#N)C#N
absorption maximum (in ClCCl): 611 nm

Compound: COc1ccc2cc(/C=C/C3=[O+][B-](F)(F)OC(/C=C/c4ccc5cc(OC)ccc5c4)=C3c3ccccc3)ccc2c1
absorption maximum (in ClCCl): 526 nm

Compound: COc1ccc2nc3c(nc2c1)c(-c1ccccc1)nn3C
absorption maximum (in C1CCCCC1): 431 nm
absorption maximum (in C1CCOC1): 435 nm
absorption maximum (in CC#N): 434 nm

Compound: CC(=O)O[B-]1(OC(C)=O)OC(/C=C/c2ccccc2)=CC(/C=C/c2ccccc2)=[O+]1
absorption maximum (in C1CCOC1): 422 nm
absorption maximum (in CC#N): 422 nm
absorption maximum (in CC(C)=O): 422 nm
absorption maximum (in CS(C)=O): 428 nm
absorption maximum (in Cc1ccccc1): 424 nm
absorption maximum (in ClC(Cl)Cl): 426 nm
absorption maximum (in ClCCl): 424 nm

Compound: c1ccc(N(c2ccccc2)c2c3ccccc3c(N(c3ccccc3)c3ccccc3)c3ccccc23)cc1
absorption maximum (in Cc1ccccc1): 461 nm

Compound: c1cc2ccc1CCCc1cc3c(cc1CCCc1ccc(c4nsnc14)CCC3)CCC2
absorption maximum (in C1CCCCC1): 402 nm
absorption maximum (in CC#N): 403 nm
absorption maximum (in ClC(Cl)Cl): 402 nm

Compound: COc1ccccc1C1=[N+]2C(=Cc3c4c(c(-c5ccccc5OC)n3[B-]2(F)F)C2CCC4CC2)C2=C1C1CCC2CC1
absorption maximum (in ClCCl): 550 nm

Compound: COc1c(C(C)=O)c(=O)oc2cc(N(C)C)ccc12
absorption maximum (in ClCCl): 373 nm

Compound: COc1ccc2c(c1)SCC1=C(c3ccccc3)C3=Nc4c(-c5ccccc5)c5c(n4[B-](F)(F)[N+]3=C12)-c1ccc(OC)cc1SC5
absorption maximum (in ClC(Cl)Cl): 706 nm

Further lines, results first:

absorption maximum (in ClCCl): 554 nm
Compound: CC1=C(I)C(C)=[N+]2C1=C(c1c(-c3ccccn3)nc3ccccn13)c1c(C)c(I)c(C)n1[B-]2(F)F

absorption maximum (in CC#N): 324 nm
Compound: COc1ccc(-n2nc(C#N)c(N3CCOCC3)n2)cc1

absorption maximum (in ClC(Cl)Cl): 337 nm
Compound: CCCCc1cc(-c2cccc(COC)c2)oc1-c1cccc(-c2cc(CCCC)c(-c3cccc(-c4cc(CCCC)c(-c5cccc(-c6oc(-c7cccc(-c8oc(-c9cccc(-c%10oc(-c%11cccc(COC)c%11)cc%10CCCC)c9)cc8CCCC)c7)cc6CCCC)c5)o4)c3)o2)c1

absorption maximum (in ClCCl): 333 nm
Compound: C[Si]1(C)C(c2ccccc2)=Cc2ccccc21

absorption maximum (in ClCCl): 360 nm
Compound: O=S1(=O)C2=C(c3ccccc31)C1(c3ccccc32)c2ccccc2-c2sc3ccccc3c21 (centres undefined)

absorption maximum (in ClC(Cl)Cl): 408 nm
Compound: O=C1CC(c2ccc([N+](=O)[O-])cc2)c2c(c3ccccc3c3nc4ccccc4nc23)O1 (centres undefined)

absorption maximum (in CC1CCCO1): 307 nm
Compound: c1ccc2c(c1)-c1ccccc1C21c2ccccc2-c2ccncc21

absorption maximum (in ClC(Cl)Cl): 598 nm
Compound: Clc1cc(Cl)c([C](c2c(Cl)cc(Cl)cc2Cl)c2c(Cl)cc(-n3c4ccccc4c4ccccc43)cc2Cl)c(Cl)c1

absorption maximum (in ClCCl): 386 nm
Compound: N#Cc1cc(/C=C/c2ccc(N(c3ccccc3)c3ccccc3)cc2)ccc1-c1ccc(/C=C/c2ccc(N(c3ccccc3)c3ccccc3)cc2)cc1C#N

absorption maximum (in C1CCCCC1): 294 nm
Compound: CCCC[Si](C)(C)c1cccc2ccccc12

absorption maximum (in O): 265 nm
Compound: N=C(N)N

absorption maximum (in ClCCl): 336 nm
Compound: CCCCn1c2ccc(-c3ccc4c(c3)c3c5c(ccc6ccc7ccccc7c65)ccc3n4CCCC)cc2c2c3c(ccc4ccc5ccccc5c43)ccc21

absorption maximum (in CCO): 394 nm
absorption maximum (in ClCCl): 396 nm
Compound: Clc1ncc(-c2c3ccccc3c(-c3cnc(Cl)nc3)c3ccccc23)cn1

absorption maximum (in C1CCOC1): 299 nm
absorption maximum (in C1COCCO1): 310 nm
Compound: c1ccc(-c2ccc(-c3ccc(-c4ccccc4)cc3)cc2)cc1

absorption maximum (in ClC(Cl)Cl): 723 nm
Compound: COc1ccc2c(c1)CCc1c(-c3ccccc3)c3n(c1-2)[B-](F)(F)[N+]1=C2C(=C(c4ccccc4)C1=N3)CCc1ccccc12

absorption maximum (in C1CCOC1): 505 nm
Compound: CC1=C[C@]2(C)C(=C3C(=C4C(C)=C(c5ccc(-c6nc(-c7ccccc7)c(-c7ccccc7)[nH]6)cc5)S[C@]42C)C(F)(F)C(F)(F)C3(F)F)S1

absorption maximum (in ClCCl): 386 nm
Compound: FC(F)(F)c1ccccc1B1c2ccccc2Nc2ccccc21

absorption maximum (in CC#N): 368.93 nm
Compound: C[n+]1ccn(CCCCc2ccc3c(c2)c2ccccc2n3-c2cc(C#N)c(C#N)cc2-n2c3ccccc3c3cc(CCCCn4cc[n+](C)c4)ccc32)c1

absorption maximum (in CC#N): 448 nm
Compound: Cc1cc(C)c2c(c1)nc1c(=O)n(C)c(=O)nc-1n2C

absorption maximum (in O): 430 nm
Compound: CC(C)c1cc(N(C)C)c(C#N)c2c1-c1cccc3cccc-2c13

absorption maximum (in ClCCl): 418 nm
Compound: CC(C)(C)c1ccc2c(c1)c1cc(C(C)(C)C)ccc1n2-c1ccc(N(c2ccc(-c3ccc(-c4ccc(-c5ccc(N(c6ccc(-n7c8ccc(C(C)(C)C)cc8c8cc(C(C)(C)C)ccc87)cc6)c6ccc(-n7c8ccc(C(C)(C)C)cc8c8cc(C(C)(C)C)ccc87)cc6)cc5)s4)s3)cc2)c2ccc(-n3c4ccc(C(C)(C)C)cc4c4cc(C(C)(C)C)ccc43)cc2)cc1

absorption maximum (in CC1CCCO1): 460 nm
absorption maximum (in CC#N): 437 nm
Compound: Cn1c(=O)nc2n(C)c3ccccc3nc-2c1=O

absorption maximum (in ClCCl): 368 nm and 381 nm
Compound: O=C(c1ccc2c3c(sc2c1)-c1ccccc1P3(=O)c1ccccc1)c1c(F)c(F)c(F)c(F)c1F (centres undefined)

absorption maximum (in CS(C)=O): 498 nm
absorption maximum (in ClCCl): 494 nm
Compound: CCN(CC)c1ccc2c(c1)oc(=O)c1c(=O)oc3cc([N+](=O)[O-])ccc3c12

absorption maximum (in ClCCl): 361 nm
absorption maximum (in O): 354 nm
Compound: Oc1cc(-c2ccco2)ccc1-c1nc2ccccc2s1
